Source: PMC8150020, “Studying the suitability of hybrid micelle liquid chromatography for estimating the lipophilicity of some partial dopamine agonists used to attain the reward circuit” (Royal Society Open Science, 2021)
Counter-ions that a name gives are not always drawn. Like-named read-outs stand apart in the source and are kept apart here.

Experiments:
[1] = experimental determination of log Pm/w using HMLC; format: physicochemical; settings: for experimental log Pm/w, column temperature 25°C: pH 6, 25°C; for experimental log Pm/w, column temperature 30°C: pH 6, 30°C; for experimental log Pm/w, column temperature 35°C: pH 6, 35°C
[2] = experimental determination of log Pm/w using MLC; format: physicochemical; settings: 0.18 M SDS, 0.3% TEA, pH 6, column 40°C
Method: (§1) Three micelle-based mobile phases were developed for the separation of this mixture. In all three cases, the separation was carried out on a Prontosil Kromaplus C18 column (250 × 4.6 mm) of particle size 5 µm, Leonberg, Germany, which was kept at 40°C. […] Separation of the three drugs was accomplished using 254 nm as a detection wavelength, adopting a flow rate of 1.5 ml min^−1.
(§2) Different actual SDS concentrations for each mobile phase (after subtracting the CMC of SDS at 40°C) were plotted versus the inverse of the capacity factor for each drug, using the optimized chromatographic conditions for MLC, HMLC and MELC, where pH was adjusted to 6, and the column temperature was kept at 40°C for the three separation methods.

[3] = parameters: method as in earlier work; settings: cited from earlier work
[4] = parameters: method as in earlier work; settings: cited from earlier work; remark: listed apart in the source
[5] = experimental determination of log Pm/w using MELC; format: physicochemical; settings: 0.18 M SDS, 10% acetonitrile, 1% octane, 0.3% TEA, pH 6, column 40°C
Method: as §1, §2

[6] = HMLC, pH 3, 40°C, read-out: log P (experimental log Pm/w) pH 3
[7] = HMLC, pH 4, 40°C, read-out: log P (experimental log Pm/w) pH 4

| experimental log Pm/w HMLC ([1]; 0.18 M SDS, 10% acetonitrile, 0.3% TEA, pH 6, column 40°C) | chromatographic logP ([1]; HMLC, pH 5, 40°C, read-out: log P (experimental log Pm/w) pH 5) | experimental log Pm/w, column temperature 40°C ([1]; HMLC, pH 6, 40°C) | chromatographic logP ([1]; HMLC, pH 6, 40°C, read-out: log P (experimental log Pm/w) pH 6) | SMILES | experimental log Pm/w, column temperature 25°C ([1]; HMLC) | experimental log Pm/w, column temperature 30°C ([1]; HMLC) | experimental log Pm/w, column temperature 35°C ([1]; HMLC) | experimental log Pm/w MLC [2] | reported log P [3] | pka [4] | experimental log Pm/w MELC [5] | chromatographic logP [1, 6] | chromatographic logP [1, 7] |
| --- | --- | --- | --- | --- | --- | --- | --- | --- | --- | --- | --- | --- | --- |
|  |  |  |  | CCCN[C@H]1CCc2nc(N)sc2C1 (racemic) [PRM, (RS)-4,5,6,7-tetrahydro-N-6-propyl-2,6-benzothiazolediamine dihydrochloride monohydrate] | 1.1714 | 2.197 | 2.228 | 0.9385 | 2.34 | 10.5 | 1.316 |  |  |
|  |  |  |  | O=C1CCc2ccc(OCCCCN3CCN(c4cccc(Cl)c4Cl)CC3)cc2N1 [ARP, 7-[4-[4-(2,3-dichlorophenyl)piperazin-1-yl]butoxy]-3,4-dihydro-1H-quinolin-2-one] | 3.12 | 3.66 |  | 2.182 |  | 10 | 2.275 | 4.23 | 4.52 |
| 1.648 | 1.1 | 1.648 | 1.65 | c1cnc(N2CCN(Cc3ccc4c(c3)OCO4)CC2)nc1 [PRB, 2-[4-(1,3-benzodioxol-5-ylmethyl)piperazin-1-yl] pyrimidine] | 0.976 |  | 1.208 | 0.7334 | 1.8 | 6.95 | 1.491 | 0.86 | 1.09 |
